Legend:
[1] = biological target: influenza A PB2long (FluA H3N2 PB2 241–741) (Influenza A virus (A/Udorn/307/1972(H3N2)), UniProt Q67296); experiment: biochemical; type: binding, influenza A/Udorn/307/1972(H3N2)
[2] = biological target: PB2long (Influenza A virus (A/Udorn/307/1972(H3N2)), UniProt Q67296); experiment: biochemical; type: binding, influenza A/Udorn/307/1972(H3N2)
[3] = biological target: PB2cap (Influenza A virus (A/Udorn/307/1972(H3N2)), UniProt Q67296); experiment: biochemical; type: binding, influenza A/Udorn/307/1972(H3N2)
[4] = tested on: A/H3N2/Udorn/72 PB2, PB1, PA, NP replicon (WT); experiment: cells; type: cell-based, influenza A/H3N2/Udorn/72 in 293 T cells; settings: Influenza A virus, H3N2, HEK-293T, 48 h, read-out: Replicon EC50, WT

Chain of PB2cap (Influenza A virus (A/Udorn/307/1972(H3N2)), UniProt Q67296) (Q67296 309-483 limits assumed): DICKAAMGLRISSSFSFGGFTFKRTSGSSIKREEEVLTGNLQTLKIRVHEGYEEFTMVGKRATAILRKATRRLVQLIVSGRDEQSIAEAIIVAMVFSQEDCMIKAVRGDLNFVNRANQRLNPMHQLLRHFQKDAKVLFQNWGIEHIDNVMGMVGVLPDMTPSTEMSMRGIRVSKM
Chain of PB2long (Influenza A virus (A/Udorn/307/1972(H3N2)), UniProt Q67296) (Q67296 241-741 limits assumed): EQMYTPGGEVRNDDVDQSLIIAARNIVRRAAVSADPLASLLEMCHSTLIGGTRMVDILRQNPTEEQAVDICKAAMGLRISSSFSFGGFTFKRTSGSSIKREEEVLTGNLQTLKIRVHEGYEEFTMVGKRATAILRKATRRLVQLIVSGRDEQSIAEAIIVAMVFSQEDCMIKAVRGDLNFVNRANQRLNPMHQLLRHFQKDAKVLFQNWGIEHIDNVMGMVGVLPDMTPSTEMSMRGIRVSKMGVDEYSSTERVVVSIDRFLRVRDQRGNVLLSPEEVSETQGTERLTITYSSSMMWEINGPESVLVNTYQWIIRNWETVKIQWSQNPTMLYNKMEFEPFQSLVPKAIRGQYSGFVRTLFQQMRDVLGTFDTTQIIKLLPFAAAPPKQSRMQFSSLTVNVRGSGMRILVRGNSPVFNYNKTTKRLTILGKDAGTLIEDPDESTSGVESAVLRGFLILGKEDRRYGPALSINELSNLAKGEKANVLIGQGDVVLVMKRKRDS
Chain of influenza A PB2long (FluA H3N2 PB2 241–741) (Influenza A virus (A/Udorn/307/1972(H3N2)), UniProt Q67296) (Q67296 241-741 limits assumed): as above

`O=C(O)[C@H]1C2CCC(CC2)[C@@H]1Nc1nc(-c2c[nH]c3ncc(F)cc23)ncc1F` [VX-787] showed a Kd [1] of 0.67 nM, a Kd [2] of 0.0067 nM and a kon ([2]; read-out: ka (association rate), PB2long) of 2.9e+06 M⁻¹ s⁻¹. It also gave a koff ([2]; read-out: kd (dissociation rate), PB2long) of 2e-05 s⁻¹, a Kd [3] of 78 nM and a kon ([3]; read-out: ka (association rate), PB2cap) of 59000 M⁻¹ s⁻¹. The koff ([3]; read-out: kd (dissociation rate), PB2cap) was 0.0046 s⁻¹ and the EC50 [4] was 3.5 nM.

Reference: paper PMC5571044 (Scientific Reports, 2017)
